Source: paper PMC9118553, “In Vivo Bioconcentration of 10 Anionic Surfactants in Rainbow Trout Explained by In Vitro Data on Partitioning and S9 Clearance” (Environmental Science & Technology, 2022)
Several values for one entry are separate records, joined by “and”; a condition that tells them apart may be missing. Identical values can stand only once.

System: rainbow trout
Test: In vivo bioconcentration experiment with a mixture of anionic surfactants, flow-through aquaria, 10 °C, pH 7.8
Conditions: for Log BCF: determined with measured concentrations in water; for Concentration in fish: individual fish; for diffusion coefficient (D) in the epithelial membrane of the gills: in vivo; for BCF (kinetic): kinetic BCF from measured concentrations in water
Experimental: The bioconcentration of a mixture of 10 anionic surfactants was measured in rainbow trout in water at pH 7.8. […] The experiment was conducted in flow-through aquaria with juvenile rainbow trout at 10 °C. Ethical approval for the experiments was obtained from Stockholms […] (decision 9967-2017). The fish, fish housing, fish handling, and procedure for introducing the mixture of […] chemicals were very similar to our previous study with cationic surfactants;[5] details are provided in Text S1. The experiment consisted of a 4-day exposure phase and a 7-day depuration phase. […] Water samples were collected and fish were sacrificed according to the schedule in Table S4. The water samples were collected just prior to the daily removal of feces from the aquarium. Triplicate samples were taken at each time point. […] The water/methanol mixture was analyzed using liquid chromatography-mass spectrometry (LC-MS)/MS as described below for fish. At each fish sampling, five fish were sacrificed. Following stunning and severance of the spinal cord, the whole fish were placed in a polyethylene bag, weighed, and immediately frozen at -20 °C. The weight of the individual fish at sacrifice was 24.0 ± 5.6 g. Three of the five fish from each time point were prioritized for analysis based on proximity to the median fish weight. Each fish was […] homogenized with an Ultra-turrax dispersing device. […] This mixture was homogenized in a bullet blender for 5 min and then placed in an ultrasound bath at 45 °C for 15 min. Following centrifugation for 15 min@3200 RCF, the supernatant was decanted and the extraction was repeated. The extracts were combined. For instrumental analysis, 5 μL of the fish extract or 60 μL of the water/methanol mixture (water samples) was separated on an Acquity UPLC BEH C18 column fitted with a BEH C18 pre-column and analyzed on a TSQ Quantiva triple quadrupole mass spectrometer. The mobile phase was methanol (10 mM ammonium acetate) and Milli-Q-filtered water (10 mM ammonium acetate) (see Table S5 for the liquid chromatography program). To avoid detergent blank peaks originating from cleaning mobile phase bottles, the methanol was prepared directly in the solvent bottle as delivered and Milli-Q was tapped into an empty methanol bottle. Furthermore, a guard column was fitted between the mobile phase and the autosampler to prevent background contamination from disturbing the analysis. All analytes were quantified against the BEHP internal standard, as it gave better reproducibility. […] The central goal of the analysis was to estimate kU and kT as well as the BCF (=kU/kT) from measurements of surfactant concentration in fish and water samples collected at different time points of the experiment. For the fish, only those time points were included for which CF(measured) was above the limit of quantitation (LOQ) in all three fish (data below the LOQ will have a positive bias; including them would result in a negative bias in kT). In this analysis, there exist two sources of uncertainty: first, uncertainty in the actual concentration in water CW at the time of sample collection and second, variability in the concentration in fish around the (expected) surfactant concentrations in fish assumed to follow model (1). We therefore set up a model in which we considered uncertainty in both water and fish measurements simultaneously by assuming a parametric model for the surfactant concentration in the water over time (either linear or quadratic) and accounted for the uncertainty in the corresponding parameters of the water model during the estimation of kU and kT. This was done in a joint Bayesian model that we estimated via Hamiltonian Monte Carlo. […]

[1] = determined using nominal concentrations in water
[2] = from measured concentrations in water, Bayesian estimate, 95% credible interval in brackets
[3] = 95% credible interval in brackets
[4] = measured concentrations in water, simpler estimation method (Text S3), 95% confidence intervals in brackets

Row | Structure (SMILES) | BCF [1] [L kg-1 ww] | Elimination rate constant kT [1] [h⁻¹] | Uptake rate constant kU [1] [L/kg/h] | Log BCF [L kg-1 ww] | Concentration in fish (elimination phase, 97 h) | Concentration in fish (elimination phase, 98 h) | Concentration in fish (elimination phase, 100 h) | Concentration in fish (elimination phase, 103 h) | Concentration in fish (elimination phase, 120 h) | Concentration in fish (elimination phase, 128 h) | Concentration in fish (elimination phase, 144 h) | Concentration in fish (elimination phase, 168 h) | Concentration in fish (elimination phase, 192 h) | Concentration in fish (elimination phase, 264 h) | Concentration in fish (exposure phase, 1 h) | Concentration in fish (exposure phase, 2 h) | Concentration in fish (exposure phase, 3 h) | Concentration in fish (exposure phase, 4 h) | Concentration in fish (exposure phase, 6 h) | Concentration in fish (exposure phase, 24 h) | other results
1 | CCCCCCCCCCCCOCCOCCOCCOCCOS(=O)(=O)O [C12-EO4-SO4, dodecyltetraethoxysulfate] | 1.42 | 0.114 | 0.162 | -0.05 | 35 ng g-1 ww and 26 ng g-1 ww and 27 ng g-1 ww | 17.6 ng g-1 ww and 19.9 ng g-1 ww and 15.8 ng g-1 ww | 35.9 ng g-1 ww and 14.4 ng g-1 ww and 21 ng g-1 ww | 11.6 ng g-1 ww and 16.1 ng g-1 ww and 15.1 ng g-1 ww | 7.0 ng g-1 ww and 8.6 ng g-1 ww and 3.1 ng g-1 ww | 5.5 ng g-1 ww and 7.5 ng g-1 ww and 4.5 ng g-1 ww | 4.7 ng g-1 ww and 5.3 ng g-1 ww and 4.5 ng g-1 ww | 4.1 ng g-1 ww and 2.7 ng g-1 ww and 1.8 ng g-1 ww | 1.6 ng g-1 ww and 3.6 ng g-1 ww and 1.8 ng g-1 ww | 3.3 ng g-1 ww and 2.4 ng g-1 ww and 1.5 ng g-1 ww | 4.3 ng g-1 ww and 6.7 ng g-1 ww and 6.6 ng g-1 ww | 6.7 ng g-1 ww and 8.9 ng g-1 ww and 6.4 ng g-1 ww | 12.1 ng g-1 ww and 10.4 ng g-1 ww and 10.6 ng g-1 ww | 14.5 ng g-1 ww and 16.2 ng g-1 ww and 14.2 ng g-1 ww | 23 ng g-1 ww and 18.6 ng g-1 ww and 13.5 ng g-1 ww | 24 ng g-1 ww and 34 ng g-1 ww and 23 ng g-1 ww | Concentration in fish (exposure phase, 48 h): 26 ng g-1 ww and 33 ng g-1 ww and 38 ng g-1 ww; Concentration in fish (exposure phase, 72 h): 30 ng g-1 ww and 39 ng g-1 ww and 35 ng g-1 ww; Concentration in fish (exposure phase, 96 h): 45 ng g-1 ww and 27 ng g-1 ww and 42 ng g-1 ww; Elimination rate constant kT [2]: 0.100 (0.083–0.120) h^–1; Uptake rate constant kU [2]: 0.090 (0.074–0.109) L kg^–1 ww h^–1; diffusion coefficient (D) in the epithelial membrane of the gills: 2.0 × 10^–8 m h^–1; BCF (kinetic) [3]: 0.89 (0.80–1.01) L kg^–1 ww; BCF [4]: 0.92 (29) L kg-1 ww; Elimination rate constant kT [4]: 0.098 (26) h-1; Uptake rate constant kU [4]: 0.090 (12) L kg-1 ww h-1
2 | CCCCCCCCCCCCCS(=O)(=O)O [C13SO3, tridecylsulfonate] | 3.9 | 0.065 | 0.25 | 0.65 | 15.7 ng g-1 ww and 14.6 ng g-1 ww and 19.2 ng g-1 ww | 14.6 ng g-1 ww and 12.4 ng g-1 ww and 14.8 ng g-1 ww | 33 ng g-1 ww and 10.3 ng g-1 ww and 12.1 ng g-1 ww | 10.0 ng g-1 ww and 23 ng g-1 ww and 11.1 ng g-1 ww | 6.4 ng g-1 ww and 4.3 ng g-1 ww and 2.9 ng g-1 ww | 2.8 ng g-1 ww and 2.3 ng g-1 ww and 4.9 ng g-1 ww | 1.63 ng g-1 ww and 1.18 ng g-1 ww and 1.59 ng g-1 ww | 0.83 ng g-1 ww and 1.89 ng g-1 ww and 0.64 ng g-1 ww | 0.40 ng g-1 ww and 0.33 ng g-1 ww and 0.60 ng g-1 ww | 0.30 ng g-1 ww and 0.13 ng g-1 ww and 0.02 ng g-1 ww | 15.3 ng g-1 ww and 2.5 ng g-1 ww and 35 ng g-1 ww | 3.2 ng g-1 ww and 3.0 ng g-1 ww and 2.3 ng g-1 ww | 4.7 ng g-1 ww and 5.8 ng g-1 ww and 4.5 ng g-1 ww | 8.1 ng g-1 ww and 54 ng g-1 ww and 202 ng g-1 ww | 10.5 ng g-1 ww and 10.3 ng g-1 ww and 8.5 ng g-1 ww | 24 ng g-1 ww and 21 ng g-1 ww and 17.0 ng g-1 ww | Concentration in fish (exposure phase, 48 h): 19.4 ng g-1 ww and 20 ng g-1 ww and 17.1 ng g-1 ww; Concentration in fish (exposure phase, 72 h): 30 ng g-1 ww and 16.7 ng g-1 ww and 15.0 ng g-1 ww; Concentration in fish (exposure phase, 96 h): 22 ng g-1 ww and 19.7 ng g-1 ww and 28 ng g-1 ww; Elimination rate constant kT [2]: 0.057 (0.052–0.062) h^–1; Uptake rate constant kU [2]: 0.25 (0.22–0.29) L kg^–1 ww h^–1; diffusion coefficient (D) in the epithelial membrane of the gills: 3.5 × 10^–8 m h^–1; BCF (kinetic) [3]: 4.5 (4.1–5.0) L kg^–1 ww; BCF [4]: 4.3 (12) L kg-1 ww; Elimination rate constant kT [4]: 0.057 (7) h-1
3 | CCCCCCCCCCCCCOS(=O)(=O)O [C13SO4, tridecylsulfate] | 31 | 0.074 | 2.29 | 1.53 | 99 ng g-1 ww and 120 ng g-1 ww and 148 ng g-1 ww | 111 ng g-1 ww and 104 ng g-1 ww and 80 ng g-1 ww | 104 ng g-1 ww and 78 ng g-1 ww and 80 ng g-1 ww | 58 ng g-1 ww and 80 ng g-1 ww and 82 ng g-1 ww | 32 ng g-1 ww and 40 ng g-1 ww and 25 ng g-1 ww | 21 ng g-1 ww (2×) and 29 ng g-1 ww | 14.4 ng g-1 ww and 11.1 ng g-1 ww and 13.5 ng g-1 ww | 12.9 ng g-1 ww and 6.4 ng g-1 ww and 7.3 ng g-1 ww | 4.0 ng g-1 ww and 4.7 ng g-1 ww and 3.9 ng g-1 ww | 3.8 ng g-1 ww and 2.1 ng g-1 ww and 1.7 ng g-1 ww | 34 ng g-1 ww and 28 ng g-1 ww and 54 ng g-1 ww | 40 ng g-1 ww and 42 ng g-1 ww and 27 ng g-1 ww | 61 ng g-1 ww and 67 ng g-1 ww and 60 ng g-1 ww | 88 ng g-1 ww and 108 ng g-1 ww and 187 ng g-1 ww | 139 ng g-1 ww and 132 ng g-1 ww and 97 ng g-1 ww | 255 ng g-1 ww (2×) and 188 ng g-1 ww | Concentration in fish (exposure phase, 48 h): 140 ng g-1 ww and 234 ng g-1 ww and 190 ng g-1 ww; Concentration in fish (exposure phase, 72 h): 201 ng g-1 ww and 154 ng g-1 ww and 128 ng g-1 ww; Concentration in fish (exposure phase, 96 h): 175 ng g-1 ww and 150 ng g-1 ww and 275 ng g-1 ww; Elimination rate constant kT [2]: 0.048 (0.043–0.053) h^–1; Uptake rate constant kU [2]: 1.62 (1.38–1.91) L kg^–1 ww h^–1; diffusion coefficient (D) in the epithelial membrane of the gills: 3.9 × 10^–8 m h^–1; BCF (kinetic) [3]: 34 (29–40) L kg^–1 ww; BCF [4]: 31 (16) L kg-1 ww; Elimination rate constant kT [4]: 0.053 (7) h-1; Uptake rate constant kU [4]: 1.64 (15) L kg-1 ww h-1; BCF (own values): 34 L kg^–1
